Assay results taken from patent publication US9266939B2, “Compositions comprising natriuretic peptides and methods of use thereof” (Alexion Pharmaceuticals, Inc., priority 2010, dated 2016).
Marks after values point to notes of the source that are not given here.

Tests used:
Fgfr3^369/+ mice = assay: Efficacy of SC NC2st on rescue of the ACH bone phenotype in Fgfr3^369/+ mice; assay type: in vivo; conditions: 61 days
Text: The study was designed to evaluate the effect of daily subcutaneous (SC) administration of NC2 Streptag (NC2st) on rescue of the achondroplasia skeletal disorders in the mouse model of the disease, the Fgfr3^369/+ mice.
Fgfr3^369/+ mice were created by an amino acid substitution (Gly to Cys) at position 369 in the mouse Fibroblast Growth Factor Receptor 3 (Fgfr3) gene (Chen et al., J. Clin. Invest. 104(11): 1517-1525, 1999). Substitution 369 (Gly369Cys) in mouse Fgfr3 gene causes dwarfism with features mimicking human achondroplasia. […] Thus, the Fgfr3^369+ mouse is an appropriate model for non-clinical studies evaluating the treatment of achondroplasia.
The study was an open label parallel and randomized control study. Treatments were open label, and Table 5 provides details of the treatment groups.
Injections were scheduled twice daily at approximately 8:00 to 10:00 AM and 8:00 to 10:00 PM. The dose volume was set at 4 ml/kg. The actual volume administered to each mouse was calculated and adjusted based on the daily body weight of each animal measured prior to the AM injection. Vehicle or NC2st was injected SC twice daily into the scapular or lumbar region of Fgfr3^369/+ animals from the third day after birth to 63 days of age.
Ex vivo radiographs of whole body, rib cage and skull were taken using a Faxitron model MX-20 DC4 under constant conditions (26 kV, 10 sec at 1×, 3× and 3× magnification, respectively). Bone measurements were performed on the radiographic images of all animals in a blinded fashion using the software Image Processing and Analysis in Java (ImageJ).
Bone samples were cleaned of excess tissue (not scraped) and fixed. Length of femur and tibia was measured using a caliper.

NPR-B = target: T1, NPR-B (Homo sapiens, UniProt P20594); assay: Whole cell guanylyl cyclase (cGMP) assay, NPR-B; assay type: cell-based; set-up: expressed in transfected cells
T1 sequence (P20594 23-1047): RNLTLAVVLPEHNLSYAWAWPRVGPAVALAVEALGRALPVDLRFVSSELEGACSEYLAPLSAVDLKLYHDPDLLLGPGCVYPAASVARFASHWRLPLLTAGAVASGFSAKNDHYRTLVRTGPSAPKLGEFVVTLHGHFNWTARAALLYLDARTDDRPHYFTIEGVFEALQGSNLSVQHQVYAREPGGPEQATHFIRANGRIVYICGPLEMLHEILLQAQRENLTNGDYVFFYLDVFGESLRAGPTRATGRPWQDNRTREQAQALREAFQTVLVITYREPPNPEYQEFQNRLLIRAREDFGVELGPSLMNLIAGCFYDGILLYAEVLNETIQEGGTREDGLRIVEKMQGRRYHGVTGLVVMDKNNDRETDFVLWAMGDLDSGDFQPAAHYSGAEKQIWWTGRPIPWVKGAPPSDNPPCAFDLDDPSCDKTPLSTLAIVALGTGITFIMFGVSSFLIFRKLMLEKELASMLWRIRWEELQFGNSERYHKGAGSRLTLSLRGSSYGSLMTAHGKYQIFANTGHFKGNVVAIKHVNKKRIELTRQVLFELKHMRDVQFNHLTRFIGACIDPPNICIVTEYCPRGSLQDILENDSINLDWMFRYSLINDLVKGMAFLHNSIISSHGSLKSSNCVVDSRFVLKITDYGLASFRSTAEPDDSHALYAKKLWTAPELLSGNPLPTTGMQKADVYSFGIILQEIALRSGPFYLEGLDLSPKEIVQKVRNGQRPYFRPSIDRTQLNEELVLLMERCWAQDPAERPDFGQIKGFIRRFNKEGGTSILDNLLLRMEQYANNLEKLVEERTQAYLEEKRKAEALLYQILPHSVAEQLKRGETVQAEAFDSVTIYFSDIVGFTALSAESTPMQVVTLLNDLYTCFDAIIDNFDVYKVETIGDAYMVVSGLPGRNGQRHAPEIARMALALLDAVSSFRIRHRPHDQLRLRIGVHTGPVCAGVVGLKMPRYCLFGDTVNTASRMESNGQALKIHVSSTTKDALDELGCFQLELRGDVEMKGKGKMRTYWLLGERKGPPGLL
Method in brief: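 HEK293S cells, transiently transfected or stably expressing human NPR-B, treated in triplicate with increasing test-protein concentrations in serum-free DMEM with 1 mM IBMX and 0.5% BSA, 37° C, 30 min to one hour; CNP as reference. Lysate cGMP measured by Catchpoint kit; four-parameter logistic fit of dose-response curves.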

[1] = Tx-100: 100 mg/kg SC twice daily
[2] = NPR-B whole cell assay (FIG. 21C)
[3] = projected from relative activities of CNP22 and NC2st in NPR-B whole cell assays

efficacy relative to CNP (NPR-B; [2]): 84% | potency relative to CNP (times less than that of CNP) (NPR-B; [2]): 83 times | projected targeted NC2st concentration to achieve 50% reversal of ACH phenotype (NPR-B; [3]): 345 (±95 S.D.) nM | projected targeted NC2st concentration to achieve >100% reversal of ACH phenotype (NPR-B; [3]): 1214 (±446 S.D.) nM
Substance: NC2st: Fc-CNP fusion: Strep-tag II, TEV site, human IgG-1 Fc, 16-amino acid glycine-rich linker, CNP22; SEQ ID NO: 502
Cervical vertebrae length, % change vs Vehicle (Fgfr3^369/+ mice; Tx-10: 10 mg/kg SC twice daily): +17.6%* | Femur length, % change vs Vehicle (Fgfr3^369/+ mice; Tx-10: 10 mg/kg SC twice daily): +3.85%* | Lumbar vertebrae length, % change vs Vehicle (Fgfr3^369/+ mice; Tx-10: 10 mg/kg SC twice daily): +8.64%* | Naso-anal length, % change vs Vehicle (Fgfr3^369/+ mice; Tx-10: 10 mg/kg SC twice daily): +8.99%* | Neck-anal length, % change vs Vehicle (Fgfr3^369/+ mice; Tx-10: 10 mg/kg SC twice daily): +12.4%* | Occipital-front distance, % change vs Vehicle (Fgfr3^369/+ mice; Tx-10: 10 mg/kg SC twice daily): +0.89% | Skull Circularity index, % change vs Vehicle (Fgfr3^369/+ mice; Tx-10: 10 mg/kg SC twice daily): −1.52% | Sternum length, % change vs Vehicle (Fgfr3^369/+ mice; Tx-10: 10 mg/kg SC twice daily): +6.67%* | Tail length, % change vs Vehicle (Fgfr3^369/+ mice; Tx-10: 10 mg/kg SC twice daily): +7.38%* | Thoracic vertebrae length, % change vs Vehicle (Fgfr3^369/+ mice; Tx-10: 10 mg/kg SC twice daily): +11.6%* | Tibia length, % change vs Vehicle (Fgfr3^369/+ mice; Tx-10: 10 mg/kg SC twice daily): +6.50%* | Total CTL vertebrae length, % change vs Vehicle (Fgfr3^369/+ mice; Tx-10: 10 mg/kg SC twice daily): +11.6%* | Cervical vertebrae length, % change vs Vehicle (Fgfr3^369/+ mice; [1]): +24.3%* | Femur length, % change vs Vehicle (Fgfr3^369/+ mice; [1]): +3.85%* | Lumbar vertebrae length, % change vs Vehicle (Fgfr3^369/+ mice; [1]): +13.6%* | Naso-anal length, % change vs Vehicle (Fgfr3^369/+ mice; [1]): +14.3%* | Neck-anal length, % change vs Vehicle (Fgfr3^369/+ mice; [1]): +21.1%* | Occipital-front distance, % change vs Vehicle (Fgfr3^369/+ mice; [1]): +0.76% | Skull Circularity index, % change vs Vehicle (Fgfr3^369/+ mice; [1]): −2.88%* | Sternum length, % change vs Vehicle (Fgfr3^369/+ mice; [1]): +13.7%* | Tail length, % change vs Vehicle (Fgfr3^369/+ mice; [1]): +7.22%* | Thoracic vertebrae length, % change vs Vehicle (Fgfr3^369/+ mice; [1]): +25.3%* | Tibia length, % change vs Vehicle (Fgfr3^369/+ mice; [1]): +8.13%* | Total CTL vertebrae length, % change vs Vehicle (Fgfr3^369/+ mice; [1]): +20.9%*
